Assay results taken from ChEMBL document CHEMBL4184167, “Fluoroethoxy-1,4-diphenethylpiperidine and piperazine derivatives: Potent and selective inhibitors of [3H]dopamine uptake at the vesicular monoamine transporter-2” (Bioorg Med Chem Lett, 2017).

Assays:
[1] = biological target: Voltage-gated inwardly rectifying potassium channel KCNH2 (Homo sapiens, UniProt Q12809); test: Displacement of [3H]Dofetilide from human ERG expressed in HEK293 cells after 60 mins by scintillation spectrometry
[2] = biological target: Synaptic vesicular amine transporter (Rattus norvegicus, UniProt Q01827); test: Inhibition of [3H]dopamine uptake at VMAT2 in rat striatal synaptic vesicles by scintillation spectrometry
[3] = biological target: Sodium-dependent serotonin transporter (Rattus norvegicus, UniProt P31652); test: Inhibition of [3H]serotonin uptake at SERT in rat striatal synaptosomes preincubated for 5 mins followed by radioligand addition measured after 10 mins by scintillation spectrometry; assay type: subcellular, Striatum
[4] = biological target: Sodium-dependent dopamine transporter (Rattus norvegicus, UniProt P23977); test: Inhibition of [3H]dopamine uptake at dopamine transporter in rat striatal synaptosomes preincubated for 5 mins followed by radioligand addition measured after 10 mins by scintillation spectrometry; assay type: subcellular, Striatum
[5] = Half life in Sprague-Dawley rat plasma; assay type: ADME, cell-free

Voltage-gated inwardly rectifying potassium channel KCNH2, sequence (Q12809 whole entry): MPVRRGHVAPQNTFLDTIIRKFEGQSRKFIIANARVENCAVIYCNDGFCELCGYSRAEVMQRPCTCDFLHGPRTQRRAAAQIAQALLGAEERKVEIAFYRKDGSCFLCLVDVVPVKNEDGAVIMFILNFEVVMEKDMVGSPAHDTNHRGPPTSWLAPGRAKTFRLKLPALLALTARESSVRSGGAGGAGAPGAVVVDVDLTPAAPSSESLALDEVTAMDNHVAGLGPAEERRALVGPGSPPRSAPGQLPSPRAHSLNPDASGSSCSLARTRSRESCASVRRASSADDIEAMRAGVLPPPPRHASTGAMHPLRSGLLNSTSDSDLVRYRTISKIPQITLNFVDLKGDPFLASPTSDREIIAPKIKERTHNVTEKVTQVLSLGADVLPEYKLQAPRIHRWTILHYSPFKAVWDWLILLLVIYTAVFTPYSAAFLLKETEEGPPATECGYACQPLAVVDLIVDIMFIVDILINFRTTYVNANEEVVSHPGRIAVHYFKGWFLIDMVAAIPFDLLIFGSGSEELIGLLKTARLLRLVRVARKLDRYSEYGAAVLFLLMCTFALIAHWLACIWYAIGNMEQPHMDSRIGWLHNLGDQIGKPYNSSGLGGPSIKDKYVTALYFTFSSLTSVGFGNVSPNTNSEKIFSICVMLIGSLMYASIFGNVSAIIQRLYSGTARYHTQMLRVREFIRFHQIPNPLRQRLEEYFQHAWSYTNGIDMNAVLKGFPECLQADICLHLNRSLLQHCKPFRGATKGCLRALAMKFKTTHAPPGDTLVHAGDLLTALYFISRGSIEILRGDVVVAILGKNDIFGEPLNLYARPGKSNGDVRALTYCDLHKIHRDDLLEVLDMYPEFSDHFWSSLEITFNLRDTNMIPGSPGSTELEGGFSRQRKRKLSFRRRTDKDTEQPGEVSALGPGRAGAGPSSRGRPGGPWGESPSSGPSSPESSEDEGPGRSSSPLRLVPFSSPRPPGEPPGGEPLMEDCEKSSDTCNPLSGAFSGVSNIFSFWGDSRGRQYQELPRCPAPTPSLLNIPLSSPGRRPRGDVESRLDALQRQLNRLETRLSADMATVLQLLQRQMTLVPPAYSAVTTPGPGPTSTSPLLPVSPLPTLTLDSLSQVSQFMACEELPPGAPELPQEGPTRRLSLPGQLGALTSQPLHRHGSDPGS
Synaptic vesicular amine transporter, sequence (Q01827 whole entry): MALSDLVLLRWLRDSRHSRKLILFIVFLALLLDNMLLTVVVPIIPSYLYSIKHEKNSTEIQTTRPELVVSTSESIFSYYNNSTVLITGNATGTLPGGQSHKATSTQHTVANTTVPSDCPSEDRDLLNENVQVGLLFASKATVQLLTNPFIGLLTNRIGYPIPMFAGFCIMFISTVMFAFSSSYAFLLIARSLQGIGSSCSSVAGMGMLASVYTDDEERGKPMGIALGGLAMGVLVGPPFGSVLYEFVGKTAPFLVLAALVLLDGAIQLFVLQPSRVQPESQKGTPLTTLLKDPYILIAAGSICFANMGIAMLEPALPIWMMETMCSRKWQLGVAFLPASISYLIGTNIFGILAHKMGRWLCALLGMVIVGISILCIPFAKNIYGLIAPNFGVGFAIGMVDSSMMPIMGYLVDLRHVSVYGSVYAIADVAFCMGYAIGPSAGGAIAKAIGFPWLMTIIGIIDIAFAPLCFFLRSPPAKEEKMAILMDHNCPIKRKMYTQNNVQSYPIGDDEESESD
Sodium-dependent serotonin transporter, sequence (P31652 whole entry): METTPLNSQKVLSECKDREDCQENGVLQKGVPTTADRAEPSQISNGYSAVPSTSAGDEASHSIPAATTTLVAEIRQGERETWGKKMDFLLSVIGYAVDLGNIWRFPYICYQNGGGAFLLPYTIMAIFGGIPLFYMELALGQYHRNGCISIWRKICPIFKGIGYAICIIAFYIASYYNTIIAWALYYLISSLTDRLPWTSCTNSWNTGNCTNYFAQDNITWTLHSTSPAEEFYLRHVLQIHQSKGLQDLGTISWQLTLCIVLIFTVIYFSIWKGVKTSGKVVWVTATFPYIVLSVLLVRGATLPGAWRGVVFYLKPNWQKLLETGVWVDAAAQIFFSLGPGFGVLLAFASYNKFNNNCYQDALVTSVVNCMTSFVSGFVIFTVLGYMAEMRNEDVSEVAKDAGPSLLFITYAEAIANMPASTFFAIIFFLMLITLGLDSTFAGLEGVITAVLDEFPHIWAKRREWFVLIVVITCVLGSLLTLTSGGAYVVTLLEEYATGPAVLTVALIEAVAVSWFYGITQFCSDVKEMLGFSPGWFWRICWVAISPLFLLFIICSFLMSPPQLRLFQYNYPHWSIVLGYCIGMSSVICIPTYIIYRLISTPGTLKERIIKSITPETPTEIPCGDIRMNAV
Sodium-dependent dopamine transporter, sequence (P23977 whole entry): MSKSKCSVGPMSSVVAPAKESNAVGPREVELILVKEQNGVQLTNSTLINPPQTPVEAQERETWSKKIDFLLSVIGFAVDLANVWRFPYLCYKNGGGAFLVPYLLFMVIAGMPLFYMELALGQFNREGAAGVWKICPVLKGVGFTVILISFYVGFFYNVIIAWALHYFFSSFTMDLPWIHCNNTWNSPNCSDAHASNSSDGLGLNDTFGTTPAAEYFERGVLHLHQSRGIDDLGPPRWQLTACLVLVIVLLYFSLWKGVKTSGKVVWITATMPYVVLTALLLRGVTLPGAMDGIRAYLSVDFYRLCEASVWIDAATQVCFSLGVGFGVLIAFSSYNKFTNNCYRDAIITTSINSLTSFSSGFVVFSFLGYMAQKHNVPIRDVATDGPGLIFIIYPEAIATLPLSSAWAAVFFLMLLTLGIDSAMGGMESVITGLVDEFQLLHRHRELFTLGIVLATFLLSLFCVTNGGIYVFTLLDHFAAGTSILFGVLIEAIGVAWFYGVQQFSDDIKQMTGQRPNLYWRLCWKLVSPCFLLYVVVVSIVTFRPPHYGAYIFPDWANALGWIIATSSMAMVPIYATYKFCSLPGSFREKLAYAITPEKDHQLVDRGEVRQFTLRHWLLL

| SMILES | IC50 [1] [nM] | Ki [2] [nM] | Ki [3] [nM] | Ki [4] [nM] | half-life [5] [min] |
| --- | --- | --- | --- | --- | --- |
| COc1ccc(CCN2CCC(CCc3ccccc3OCCF)CC2)cc1 | 350 | 73 | – | – | – |
| COc1ccc(CCN2CCC(CCc3cccc(OCCF)c3)CC2)cc1 | 280 | 67 | 660 | – | – |
| FCCOc1ccccc1CCC1CCN(CCc2ccc(F)cc2)CC1 | – | 27 | – | – | – |
| FCCOc1cccc(CCC2CCN(CCc3ccccc3)CC2)c1 | – | 53 | – | 3140 | – |
| CN1[C@@H](CC(=O)c2ccccc2)CCC[C@H]1C[C@H](O)c1ccccc1 [LOBELINE] | – | – | – | – | 50 |
| COc1ccccc1CCN1CCC(CCc2cccc(OCCF)c2)CC1 | 800 | 61 | 470 | – | – |
| FCCOc1ccc(CCC2CCN(CCc3ccccc3Cl)CC2)cc1 | – | 190 | 3620 | – | – |
| FCCOc1ccc(CCN2CCC(CCc3ccccc3)CC2)cc1 | 350 | 150 | 390 | 1060 | – |
| FCCOc1ccccc1CCC1CCN(CCc2ccccc2)CC1 | – | 35 | – | – | – |
| FCCOc1ccc(CCN2CCN(CCc3ccccc3)CC2)cc1 | 3050 | 600 | 3370 | 2740 | – |
| FCCOc1ccccc1CCN1CCN(CCc2ccccc2Cl)CC1 | 850 | 14 | 72 | – | – |
| FCCOc1ccccc1CCN1CCN(CCc2ccc(F)cc2)CC1 | – | 24 | 300 | – | – |
| FCCOc1cccc(CCN2CCN(CCc3ccccc3)CC2)c1 | – | 73 | – | – | – |
| COc1ccccc1CCN1CCC(CCc2ccccc2OCCF)CC1 | – | 25 | – | – | – |
| FCCOc1cccc(CCN2CCC(CCc3ccccc3)CC2)c1 | – | 24 | – | – | – |
| FCCOc1ccc(CCN2CCN(CCc3ccccc3Cl)CC2)cc1 | 1400 | 450 | 480 | – | – |
